Test results published in the NIST ThermoML archive (doi:10.1021/je800571y).
Numbers after ± are expanded uncertainties.

What was measured:
[1] = 101 kPa, Liquid
[2] = xn = mol fraction of the nth substance listed; conditions: 101 kPa, Liquid

Structure (SMILES) | mass density ([1]; 293.15 K) [kg/m3] | viscosity ([1]; 293.15 K) [mPa·s] | mass density ([1]; 298.15 K) [kg/m3] | viscosity ([1]; 298.15 K) [mPa·s] | mass density ([1]; 303.15 K) [kg/m3] | viscosity ([1]; 303.15 K) [mPa·s] | mass density ([1]; 308.15 K) [kg/m3] | viscosity ([1]; 308.15 K) [mPa·s] | mass density ([1]; 313.15 K) [kg/m3] | viscosity ([1]; 313.15 K) [mPa·s] | mass density ([2]; 293.15 K, x2 = 0) [kg/m3] | viscosity ([2]; 293.15 K, x2 = 0) [mPa·s] | mass density ([2]; 298.15 K, x2 = 0) [kg/m3] | viscosity ([2]; 298.15 K, x2 = 0) [mPa·s] | mass density ([2]; 303.15 K, x2 = 0) [kg/m3] | viscosity ([2]; 303.15 K, x2 = 0) [mPa·s] | mass density ([2]; 308.15 K, x2 = 0) [kg/m3] | viscosity ([2]; 308.15 K, x2 = 0) [mPa·s] | mass density ([2]; 313.15 K, x2 = 0) [kg/m3] | viscosity ([2]; 313.15 K, x2 = 0) [mPa·s] | further results
CC(C)CO [2-methyl-1-propanol] | 801.68 ± 0.98 | 4.037 ± 0.71 | 797.8 ± 1 | 3.33 ± 0.59 | 794.16 ± 1.1 | 2.875 ± 0.52 | 790.06 ± 1.1 | 2.421 ± 0.44 | 786.7 ± 1.1 | 1.967 ± 0.36 | – | – | – | – | – | – | – | – | – | – | –
CC(C)CO [2-methyl-1-propanol] + CCC(C)=O | – | – | – | – | – | – | – | – | – | – | 801.68 ± 0.98 | 4.037 ± 0.71 | 797.8 ± 1 | 3.33 ± 0.59 | 794.16 ± 1.1 | 2.875 ± 0.52 | 790.06 ± 1.1 | 2.421 ± 0.44 | 786.7 ± 1.1 | 1.967 ± 0.36 | –
CCC(C)(C)O [2-methylbutan-2-ol] | 809.61 ± 1.1 | 5.108 ± 0.88 | 805.01 ± 1.1 | 4.474 ± 0.78 | 800.41 ± 1.1 | 3.909 ± 0.69 | 795.81 ± 1.1 | 3.387 ± 0.6 | 791.21 ± 1.2 | 2.909 ± 0.52 | – | – | – | – | – | – | – | – | – | – | –
CCC(C)O (centres undefined) [butan-2-ol] | 806.48 ± 1 | 3.632 ± 0.64 | 802.35 ± 1 | 2.998 ± 0.54 | 798.96 ± 1.1 | 2.498 ± 0.45 | 794.18 ± 1.1 | 2.054 ± 0.38 | 790.07 ± 1.1 | 1.799 ± 0.33 | – | – | – | – | – | – | – | – | – | – | –
CCC(C)O (centres undefined) [butan-2-ol] + CCC(C)=O | – | – | – | – | – | – | – | – | – | – | 806.48 ± 1 | 3.632 ± 0.64 | 802.35 ± 1 | 2.998 ± 0.54 | 798.96 ± 1.1 | 2.498 ± 0.45 | 794.18 ± 1.1 | 2.054 ± 0.38 | 790.07 ± 1.1 | 1.799 ± 0.33 | –
CCC(C)=O [butanone] | 804.92 ± 1.1 | – | 799.7 ± 1.1 | 0.2828 ± 0.074 | 794.81 ± 1.1 | 0.2666 ± 0.071 | 789.78 ± 1.2 | 0.2601 ± 0.07 | 784.32 ± 1.2 | 0.2545 ± 0.069 | – | – | – | – | – | – | – | – | – | – | –
CCC(C)=O [butanone] + CCC(C)(C)O | – | – | – | – | – | – | – | – | – | – | – | – | – | – | – | – | – | – | – | – | mass density ([2]; 293.15 K, x1 = 1): 804.92 ± 1.1 kg/m3; viscosity ([2]; 293.15 K, x1 = 1): 0.3956 ± 0.093 mPa·s; mass density ([2]; 298.15 K, x1 = 1): 799.7 ± 1.1 kg/m3; viscosity ([2]; 298.15 K, x1 = 1): 0.2828 ± 0.074 mPa·s; mass density ([2]; 303.15 K, x1 = 1): 794.81 ± 1.1 kg/m3; viscosity ([2]; 303.15 K, x1 = 1): 0.2666 ± 0.071 mPa·s; mass density ([2]; 308.15 K, x1 = 1): 789.78 ± 1.2 kg/m3; viscosity ([2]; 308.15 K, x1 = 1): 0.2601 ± 0.07 mPa·s; mass density ([2]; 313.15 K, x1 = 1): 784.32 ± 1.2 kg/m3; viscosity ([2]; 313.15 K, x1 = 1): 0.2545 ± 0.069 mPa·s
CC(C)O [propan-2-ol] | 785.45 ± 0.99 | 2.226 ± 0.41 | 781.26 ± 0.98 | 1.91 ± 0.35 | 777.97 ± 1.1 | 1.737 ± 0.32 | 772.59 ± 1.1 | 1.524 ± 0.29 | 768.32 ± 1.1 | 1.347 ± 0.26 | – | – | – | – | – | – | – | – | – | – | –
CC(C)O [propan-2-ol] + CCC(C)=O | – | – | – | – | – | – | – | – | – | – | 785.45 ± 0.99 | 2.226 ± 0.41 | 781.26 ± 0.98 | 1.91 ± 0.35 | 777.97 ± 1.1 | 1.737 ± 0.32 | 772.59 ± 1.1 | 1.524 ± 0.29 | 768.32 ± 1.1 | 1.347 ± 0.26 | –
